Measured values taken from patent US10071983B2, “Activatable fluorogenic compounds and uses thereof as near infrared probes” (Ramot at Tel-Aviv University Ltd., priority 2011, dated 2018).

Tests used:
[1] = NIR fluorescence emission spectrum of dye compounds; assay type: physicochemical; conditions: for λmax: Table 1, λmax (fluorescence emission)
Source text: (§1) Compound 1 (which generates the dye compound QCy7 deprotonation) was obtained as an orange crystalline powder. FIGS. 4A and 4B present the UV-Vis spectrum of Compound 1 (FIG. 4A), compared to that of the acetate Compound 3 (FIG. 4B). […] The obtained large stokes shift between the excitation and the emission wavelengths of about 150 nm is a desirable feature for fluorescence probes, which assists in increasing the signal-to-noise ratio.
(§2) FIG. 5 presents the data obtained for fluorescence intensity vs. wavelength of standard sample (Cresyl violet; FIG. 5A), and test sample (QCy7; FIG. 5B), at the indicated concentrations. The measurements were performed in a 1 cm cuvette using Fluoromax-3 fluorometer; at an excitation wavelength of 560 nm. Cresyl violet was dissolved in methanol and Compound 1 in PBS 7.4 (just generating QCy7).
(§3) FIG. 8 presents the data obtained for fluorescence intensity vs. wavelength of standard sample (QCy7; FIG. 8A), and test sample (Sulfo-QCy7, generated from Compound 9; FIG. 8B), at the indicated concentrations. The measurements were performed at a 96-wells plate reader using Fluoromax-3 fluorometer; at an excitation wavelength of 560 nm. Both samples were dissolved in PBS 7.4.

[2] = Fluorescence quantum yield calculation against a reference dye; assay type: physicochemical; conditions: PBS 7.4
Method: Cresyl-violet-perchlorate (as presented hereinbelow) was chosen as a reference compound for the determination of QCy7 quantum yield.
as §2
Conversion to the absolute quantum yield is achieved through the following equation: ΦX=ΦST(GradX/GradST)(η^2X/η^2ST) where the subscripts ST and X denote standard and test respectively, Φ is the fluorescence quantum yield, Grad the gradient from the plot of integrated fluorescence intensity vs. absorbance (see, FIG. 6), and η the refractive index of the solvents. ΦCresyl-violet=0.55 [Stefan et al. ([…]) J. Phys. Chem. 86, 1738-1742].
QCy7 was chosen as a reference compound for the determination of Sulfo-QCy7 quantum yield.
as §3
The absolute quantum yield was calculated as described hereinabove and found to be: […]

[3] = NIR fluorescence emission spectrum of dye compounds; assay type: physicochemical; conditions: PBS 7.4 [50 μM], excitation 570 nm, cutting filter >690 nm
[4] = NIR fluorescence assay of probe Compound 4 with hydrogen peroxide
Method: In order to evaluate the NIR fluorescence obtained by probe Compound 4 upon reaction with hydrogen peroxide under physiological conditions, the probe was incubated in PBS 7.4 at 37° C., in the presence and absence of hydrogen peroxide at varying concentrations, and the emitted NIR fluorescence was measured by a spectrophotometer (M2 of Molecular Device). The results, presented in FIG. 20A, indicate full conversion of probe Compound 4 to sulfo-QCy7 within 30 minutes (red plot).
The sensitivity of probe Compound 4 towards detection of hydrogen peroxide was then evaluated.

[5] = In vivo imaging of exogenous hydrogen peroxide (premixed probe injected); parameters: species or system mice
Method: Initially, as a simple control experiment, a premixed solution of probe 4 with hydrogen peroxide was injected into the peritoneal cavity, and the mice were imaged in a CRI Maestro™ non-invasive fluorescence imaging system.
Next, it was tested whether probe Compound 4 can be used to differentiate in vivo various concentrations of hydrogen peroxide in order to test the system's sensitivity. Therefore, two different concentrations of hydrogen peroxide were premixed with probe Compound 4; immediately injected intramuscularly, into the leg, and then imaged by the CRI Maestro™ non-invasive fluorescence imaging system.

[6] = tested on: endogenously produced hydrogen peroxide; experiment: In vivo imaging of endogenous hydrogen peroxide, LPS-induced acute inflammation; parameters: species or system Balb/c mice
Method: To induce acute inflammation in Balb/c mice, 1 ml (0.1 mg/ml) of LPS (Lipopolysaccharides from Escherichia coli 055:B5, Sigma) was injected into the peritoneal cavity of Balb/c mice as previously described [Lee, D. et al. Nat. Mater. 6, 765-769 (2007)]. Six hours later, additional i.p. injections of 400 μl of 1 mM of the tested probe compound or PBS (as control) were performed. Second control group of mice was injected i.p. with 1 ml of PBS followed by additional i.p. injection of 400 μl PBS. Fifteen minutes later, mice were anesthetized using ketamine (100 mg/kg) and xylazine (12 mg/kg), treated with a depilatory cream (Veet®), and placed inside CRI Maestro non-invasive fluorescence imaging system. Multispectral image-cubes were acquired through 600-800 nm spectral range in 10 nm steps using excitation (595 nm) and emission (635 nm longpass) filter set. Mice autofluorescence and undesired background signals were eliminated by spectral analysis and linear unmixing algorithm. Activated probe-fluorescence unmixed specific signal was quantified as total signal of photons/exposure time (sec). Data is expressed as mean±s.d.
The, the use of probe Compound 4 for visualizing endogenously-produced hydrogen peroxide was tested. […] Mater. 6, 765-9 (2007)]. Mice were injected intraperitoneally (i.p.) with LPS (1 ml of 0.1 mg/ml), followed 6 hours later by additional i.p. injection of probe Compound 4 (400 μl of 1 mM) and were thereafter imaged by the CRI Maestro™ non-invasive fluorescence imaging system.

[7] = Aqueous stability in PBS 7.4 at 37° C., NIR emission over 72 hours; assay type: physicochemical; conditions: PBS 7.4 [25 μM]
Method: The aqueous stability of the cyanine-like dye compound presented herein was tested and compared to that of the cyanine molecule Cy7.
All tested compounds were incubated in PBS 7.4 [25 μM], at 37° C., and their NIR fluorescent emission was monitored over 72 hours. FIG. 15 presents the normalized intensity of NIR fluorescent emission of dyes generated from Compound 9 (green circles; Sulfo-QCy7), Compound 14 (blue diamonds), Compound 18 (red squares), Compound 25 (orange triangles) and Compound 1 (blank navy squares; QCy7) as a function of incubation time.

[8] = UV-Vis absorption spectrum of dye compounds; assay type: physicochemical; conditions: for λmax: Table 1, first λmax column (absorption peaks)
Source text: as §1
Compound 14 is composed from a phenol latent donor and two different acceptors; a picolinium moiety and an indolium moiety (see, Scheme 3). Deprotonation of the phenolic dye leads to formation of new donor-acceptor pair fluorochrome.
Compound 18 is composed of a phenol latent donor and two identical acceptors based on a picolinium moiety (see, Scheme 4). Deprotonation of the phenolic form leads to formation of new donor-acceptor pair fluorochrome.
Compound 25 is composed of a phenol latent donor and three acceptors; two picolinium moieties and one indolium moiety (see, Scheme 5). Deprotonation of the phenolic compound leads to formation of three resonance donor-two-acceptor structures of new fluorochrome.
The chemical 2D structures and spectroscopic data obtained for exemplary dye molecules according to embodiments of the present invention are presented in Table 1.

[9] = pKa measurement by UV-Vis absorbance as a function of pH; assay type: physicochemical; conditions: buffers at the indicated pH; 50 μM in buffers, phenol form
Method: The pKa values of exemplary compounds according to some embodiments of the present invention, Compounds 14, 18 and 25, was measured by monitoring their UV-Vis absorbance as a function of the environment pH. The tested compounds, at a concentration of 50 μM were dissolved in the respective buffers at the indicated pH and their absorbance was measured.

Row | SMILES | λmax [1] | quantum yield [2] | other results
1 | CC1(C)C(/C=C/c2cc(/C=C/C3=[N+](CCCS(=O)(=O)[O-])c4ccccc4C3(C)C)c(O)c(/C=C/C3=[N+](CCCS(=O)(=O)[O-])c4ccccc4C3(C)C)c2)=[N+](CCCS(=O)(=O)[O-])c2ccccc21 [Compound 30] | 710 nm | 16% | –
2 | CC1(C)C(/C=C/c2ccc(OCc3ccc(B(O)O)cc3)c(/C=C/C3=[N+](CCCS(=O)(=O)[O-])c4ccccc4C3(C)C)c2)=[N+](CCCS(=O)(=O)[O-])c2ccccc21 [Compound 4] | – | – | appearance under NIR imaging camera [3]: clearly transparent; NIR fluorescence in the absence of hydrogen peroxide ([4]; PBS 7.4, 37° C.): No NIR fluorescence is observed; time to full conversion of probe to sulfo-QCy7 ([4]; probe [50 μM], hydrogen peroxide [50 μM], PBS 7.4, 37° C.): ≤ 30 min; detectable hydrogen peroxide concentration ([4]; probe [100 μM]): below 1 μM; NIR fluorescence in vivo, probe premixed with hydrogen peroxide ([5]; injected into the peritoneal cavity): can generate NIR fluorescence in vivo image; NIR fluorescence in vivo, probe only ([5]; injected into the peritoneal cavity, no hydrogen peroxide): did not show any detectable NIR fluorescence; dependence of NIR fluorescence intensity on hydrogen peroxide concentration in vivo ([5]; premixed, injected intramuscularly into the leg): dependent on the hydrogen peroxide initial concentration; signal-to-noise ratio of NIR fluorescence intensity vs control group ([6]; LPS i.p., probe 400 μl of 1 mM i.p. 6 hours later): about 10 fold; NIR fluorescence signal, LPS-treated vs non-LPS treated mice ([6]; LPS i.p., probe i.p. 6 hours later): significantly greater intensity of NIR fluorescence signal; NIR fluorescence in mice treated only with probe ([6]; no LPS): slight NIR fluorescence
3 | CCOC(=O)c1cc(/C=C/c2cc[n+](C)c3ccccc23)c(O)c(/C=C/c2cc[n+](C)c3ccccc23)c1 [Compound 20] | No fluores- cence | – | –
4 | CCOC(=O)c1cc(/C=C/c2cc[n+](C)cc2)c(O)c(/C=C/c2cc[n+](C)cc2)c1 [Compound 19] | 660 nm | – | –
5 | C[n+]1ccc(/C=C/c2cc(/C=C/C3=[N+](CCCS(=O)(=O)[O-])c4ccccc4C3(C)C)ccc2O)cc1.[I-] [Compound 14] | 650 nm | 17% | aqueous stability compared with Cy7 [7]: increase aqueous stability than that of Cy7; loss of NIR fluorescence during incubation period [7]: did not show any loss of NIR fluorescence; UV-Vis absorption peak maximum ([8]; PBS 7.4): 550 nm; fluorescence emission peak in the NIR region ([1]; PBS 7.4): 680 nm; pKa [9]: 2.9
6 | C[n+]1ccc(/C=C/c2cc([N+](=O)[O-])cc(/C=C/c3cc[n+](C)cc3)c2O)cc1 [Compound 23] | 600 nm | – | –
7 | C[n+]1ccc(/C=C/c2ccc(O)c(/C=C/c3cc[n+](C)cc3S(=O)(=O)[O-])c2)c(S(=O)(=O)[O-])c1 [Compound 17] | 730 nm | 2.6% | –
8 | CCOC(=O)c1cc(/C=C/c2cc[n+](C)cc2C#N)c(O)c(/C=C/c2cc[n+](C)cc2C#N)c1 [Compound 21] | 730 nm | – | –
9 | C[n+]1ccc(/C=C/c2cc(C(=O)O)cc(/C=C/c3cc[n+](C)cc3)c2O)cc1 [Compound 29] | 700 nm | 2% | –
10 | C[n+]1ccc(/C=C/c2ccc(O)c(/C=C/c3cc[n+](C)c4ccccc34)c2)c2ccccc21.[I-].[I-] [Compound 13] | No fluores- cence | – | λmax [8]: 550 nm
11 | C[n+]1ccc(/C=C/c2cc(C=O)cc(/C=C/c3cc[n+](C)cc3)c2O)cc1 [Compound 22] | 650 nm | 7% | –
12 | C[n+]1ccc(/C=C/c2cc(/C=C/c3cc[n+](C)cc3)c(O)c(/C=C/c3cc[n+](C)cc3)c2)cc1.I.I [Compound 31] | 720 nm | – | –
13 | C[n+]1ccc(/C=C/c2ccc(O)c(/C=C/c3cc[n+](C)cc3)c2)cc1.[I-].[I-] [Compound 10] | 720 nm | – | –
14 | C[n+]1ccc(/C=C/c2cc(Br)cc(/C=C/c3cc[n+](C)cc3)c2O)cc1 [Compound 27] | 720 nm | 2.9% | –
15 | CC(=O)Oc1ccc(/C=C/C2=[N+](C)c3ccccc3C2(C)C)cc1/C=C/C1=[N+](C)c2ccccc2C1(C)C [Compound 3] | – | – | fluorescence emission in the NIR region of masked derivative ([1]; PBS 7.4 [100 μM], λex=560 nm): did not show any fluorescence emission in the NIR region
16 | CC(C)(C)c1cc(/C=C/c2ccc(O)c(/C=C/c3cc(C(C)(C)C)[o+]c(C(C)(C)C)c3)c2)cc(C(C)(C)C)[o+]1 [Compound 15] | No fluores- cence | – | –
17 | C[n+]1ccc(/C=C/c2cc(/C=C/c3cc(C(C)(C)C)[o+]c(C(C)(C)C)c3)ccc2O)cc1.I [Compound 16] | 730 nm | – | λmax [8]: 580 nm
18 | C[n+]1ccc(/C=C/c2ccc(O)c(/C=C/c3cc[n+](C)cc3C#N)c2)c(C#N)c1.[I-].[I-] [Compound 11] | 730 nm | – | –
19 | C[n+]1ccc(/C=C/c2ccc(O)c(/C=C/c3cc[n+](C)cc3[N+](=O)[O-])c2)c([N+](=O)[O-])c1.[I-].[I-] [Compound 12] | No fluores- cence | – | λmax [8]: 350 nm
